Results on three compounds are retold here after ChEMBL document CHEMBL2176881, “Development of N-[4-[6-(isopropylamino)pyrimidin-4-yl]-1,3-thiazol-2-yl]-N-methyl-4-[11C]methylbenzamide for positron emission tomography imaging of metabotropic glutamate 1 receptor in monkey brain” (J Med Chem, 2012).

For orientation: IC50 means the concentration that inhibits the measured activity by half. Higher therefore signals a need for much substance. One may read the Ki as the dissociation constant of the complex between target and ligand, obtained from inhibition or displacement. A high value points to lower affinity. For orientation: logD means the decadic logarithm of the distribution of all forms, ionised or not, between an organic phase and buffer at a given pH. Lower therefore signals a more hydrophilic compound.

Calls of active or inactive are those of the source. No cut-off for these calls is given here.

Data set [1] addresses Metabotropic glutamate receptor 1 (Rattus norvegicus) (UniProt P23385). Briefly: Binding affinity to mGlu1 receptor in rat brain pons at 7.4 MBq after 60 mins by autoradiography. The conditions noted are these: 7.4 M, tested as the 14C-labelled form. The class given is tissue-based.
For data set [2] the target is unchanged. Briefly: Binding affinity to mGlu1 receptor in rat cerebellum at 7.4 MBq after 60 mins by autoradiography. The conditions noted are these: 7.4 M, tested as the 14C-labelled form. The class given is tissue-based.
For data set [3] the target is unchanged. Briefly: Binding affinity to mGlu1 receptor in rat thalamus at 7.4 MBq after 60 mins by autoradiography. The class given is tissue-based. The conditions noted are these: 7.4 M, tested as the 14C-labelled form.
Data set [4] shares this target. Briefly: Binding affinity to mGlu1 receptor in rat striatum at 7.4 MBq after 60 mins by autoradiography. The class given is tissue-based. The settings on record: 7.4 M, tested as the 14C-labelled form.
For data set [5] the target is unchanged. Kind of data set: Binding affinity to mGlu1 receptor in rat hippocampus. The format is tissue-based.
The target is the same in data set [6]. Briefly: Binding affinity to mGlu1 receptor in rat hippocampus at 7.4 MBq after 60 mins by autoradiography. The settings on record: 7.4 M, tested as the 14C-labelled form. The format is tissue-based.
Data set [7] concerns the target Metabotropic glutamate receptor 1 (Rattus norvegicus, UniProt P23385). Kind of data set: Displacement of [18F]FITM from mGlu1 receptor in rat brain homogenates after 1 hr by gamma counting. The format is tissue-based. (In general: In a radioligand displacement assay an active substance lowers the binding of a labelled ligand.)
The target in data set [8] is Metabotropic glutamate receptor 1 (Rattus norvegicus) (UniProt P23385). Briefly: Binding affinity to mGlu1 receptor in rat brain substantia nigra pars reticulate at 7.4 MBq after 60 mins by autoradiography. The format is tissue-based. The conditions noted are these: 7.4 M, tested as the 14C-labelled form.
Data set [9] has the same target. Kind of data set: Binding affinity to mGlu1 receptor in rat brain cerebral cortex at 7.4 MBq after 60 mins by autoradiography. The format is tissue-based. The conditions noted are these: 7.4 M, tested as the 14C-labelled form.
The target is the same in data set [10]. Briefly: Binding affinity to mGlu1 receptor in rat striatum. The class given is tissue-based.
A short description of data set [11]: Lipophilicity, log D of the compound by shake flask method. The class given is physicochemical. The settings on record: octanol/water.
For data set [12], the target named is Metabotropic glutamate receptor 5 (Rattus norvegicus, UniProt P31424). Kind of data set: Displacement of [11C]-ABP688 from mGlu5 receptor in rat brain homogenates after 1 hr by gamma counting. The format is tissue-based.
The target in data set [13] is Metabotropic glutamate receptor 1 (Rattus norvegicus) (UniProt P23385). Briefly: Binding affinity to mGlu1 receptor in rat thalamus. The format is tissue-based.
Data set [14] shares this target. Briefly: Binding affinity to mGlu1 receptor in rat brain homogenates at 7.4 MBq after 60 mins by autoradiography in presence of unlabeled N-[4-[6-(Isopropylamino)pyrimidin-4-yl]-1,3-thiazol-2-yl]- N,4-dimethylbenzamide. The class given is tissue-based. The settings on record: 7.4 M, tested as the 14C-labelled form.
For data set [15] the target is unchanged. Kind of data set: Binding affinity to mGlu1 receptor in rat brain homogenates at 7.4 MBq after 60 mins by autoradiography in presence of unlabeled 4-(6-chloropyrimidin-4-yl)-N-methylthiazol-2-amine. The format is tissue-based. The conditions noted are these: 7.4 M, tested as the 14C-labelled form.

Chain of Metabotropic glutamate receptor 5 (P31424 whole entry): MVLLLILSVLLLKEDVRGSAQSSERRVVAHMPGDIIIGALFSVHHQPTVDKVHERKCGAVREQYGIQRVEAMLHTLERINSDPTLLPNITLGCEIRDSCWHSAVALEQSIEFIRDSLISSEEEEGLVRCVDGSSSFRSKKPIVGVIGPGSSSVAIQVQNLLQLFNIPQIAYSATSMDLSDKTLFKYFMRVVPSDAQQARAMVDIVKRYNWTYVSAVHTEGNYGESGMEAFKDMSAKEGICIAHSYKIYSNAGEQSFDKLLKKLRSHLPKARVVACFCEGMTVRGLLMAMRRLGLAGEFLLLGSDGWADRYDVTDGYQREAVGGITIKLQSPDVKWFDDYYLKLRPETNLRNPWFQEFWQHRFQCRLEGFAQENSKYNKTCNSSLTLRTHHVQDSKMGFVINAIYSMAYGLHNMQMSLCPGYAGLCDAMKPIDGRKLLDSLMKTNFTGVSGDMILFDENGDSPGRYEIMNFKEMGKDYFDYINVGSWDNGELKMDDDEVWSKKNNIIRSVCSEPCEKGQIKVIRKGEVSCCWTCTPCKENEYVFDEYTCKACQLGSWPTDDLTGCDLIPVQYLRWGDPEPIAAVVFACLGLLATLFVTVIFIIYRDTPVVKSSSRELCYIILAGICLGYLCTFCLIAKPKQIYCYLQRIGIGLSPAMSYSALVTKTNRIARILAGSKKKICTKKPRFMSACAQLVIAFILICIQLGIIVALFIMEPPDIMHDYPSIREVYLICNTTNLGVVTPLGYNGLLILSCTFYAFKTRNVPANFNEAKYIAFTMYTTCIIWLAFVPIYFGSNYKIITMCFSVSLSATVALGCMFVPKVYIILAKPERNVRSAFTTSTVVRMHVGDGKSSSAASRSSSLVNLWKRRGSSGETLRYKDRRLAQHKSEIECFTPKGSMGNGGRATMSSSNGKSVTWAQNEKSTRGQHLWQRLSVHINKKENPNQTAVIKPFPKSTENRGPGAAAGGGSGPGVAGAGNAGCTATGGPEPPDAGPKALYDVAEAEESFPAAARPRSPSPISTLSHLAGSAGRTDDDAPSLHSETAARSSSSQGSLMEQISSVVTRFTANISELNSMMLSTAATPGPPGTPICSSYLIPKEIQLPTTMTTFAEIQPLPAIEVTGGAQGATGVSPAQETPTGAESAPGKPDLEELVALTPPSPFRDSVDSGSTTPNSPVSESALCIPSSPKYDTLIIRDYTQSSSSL
Chain of Metabotropic glutamate receptor 1 (Rattus norvegicus) (P23385 19-1199 limits assumed): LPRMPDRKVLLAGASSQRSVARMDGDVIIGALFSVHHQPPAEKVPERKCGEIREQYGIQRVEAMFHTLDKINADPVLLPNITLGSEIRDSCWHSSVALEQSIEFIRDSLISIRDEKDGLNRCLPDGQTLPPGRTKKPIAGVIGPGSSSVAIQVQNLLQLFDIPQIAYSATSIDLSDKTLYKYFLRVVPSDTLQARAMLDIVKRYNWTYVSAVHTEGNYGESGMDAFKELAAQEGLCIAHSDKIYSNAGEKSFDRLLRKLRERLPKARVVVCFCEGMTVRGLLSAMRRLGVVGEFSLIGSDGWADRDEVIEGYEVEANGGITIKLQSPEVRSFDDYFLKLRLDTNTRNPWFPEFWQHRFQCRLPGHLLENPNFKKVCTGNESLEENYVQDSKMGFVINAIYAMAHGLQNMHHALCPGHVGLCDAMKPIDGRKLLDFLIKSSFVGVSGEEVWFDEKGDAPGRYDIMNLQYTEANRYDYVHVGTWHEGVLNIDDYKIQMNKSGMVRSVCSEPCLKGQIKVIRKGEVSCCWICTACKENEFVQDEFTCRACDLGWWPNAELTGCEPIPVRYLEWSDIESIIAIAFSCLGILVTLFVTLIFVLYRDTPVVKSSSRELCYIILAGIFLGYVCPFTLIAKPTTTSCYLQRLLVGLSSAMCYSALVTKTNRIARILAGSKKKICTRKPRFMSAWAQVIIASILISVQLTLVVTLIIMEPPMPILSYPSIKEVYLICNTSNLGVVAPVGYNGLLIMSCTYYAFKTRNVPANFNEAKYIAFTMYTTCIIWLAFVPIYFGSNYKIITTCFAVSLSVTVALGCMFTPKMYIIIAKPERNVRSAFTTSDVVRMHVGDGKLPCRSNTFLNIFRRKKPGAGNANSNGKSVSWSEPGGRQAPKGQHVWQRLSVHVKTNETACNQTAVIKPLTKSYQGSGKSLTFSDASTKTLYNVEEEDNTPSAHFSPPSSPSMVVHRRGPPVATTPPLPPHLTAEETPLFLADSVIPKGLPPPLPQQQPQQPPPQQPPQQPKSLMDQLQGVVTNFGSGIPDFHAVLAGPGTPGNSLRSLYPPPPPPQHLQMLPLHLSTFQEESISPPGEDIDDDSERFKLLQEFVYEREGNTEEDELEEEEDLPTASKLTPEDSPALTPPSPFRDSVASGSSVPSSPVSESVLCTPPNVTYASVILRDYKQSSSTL
Chain of Metabotropic glutamate receptor 1 (P23385 whole entry): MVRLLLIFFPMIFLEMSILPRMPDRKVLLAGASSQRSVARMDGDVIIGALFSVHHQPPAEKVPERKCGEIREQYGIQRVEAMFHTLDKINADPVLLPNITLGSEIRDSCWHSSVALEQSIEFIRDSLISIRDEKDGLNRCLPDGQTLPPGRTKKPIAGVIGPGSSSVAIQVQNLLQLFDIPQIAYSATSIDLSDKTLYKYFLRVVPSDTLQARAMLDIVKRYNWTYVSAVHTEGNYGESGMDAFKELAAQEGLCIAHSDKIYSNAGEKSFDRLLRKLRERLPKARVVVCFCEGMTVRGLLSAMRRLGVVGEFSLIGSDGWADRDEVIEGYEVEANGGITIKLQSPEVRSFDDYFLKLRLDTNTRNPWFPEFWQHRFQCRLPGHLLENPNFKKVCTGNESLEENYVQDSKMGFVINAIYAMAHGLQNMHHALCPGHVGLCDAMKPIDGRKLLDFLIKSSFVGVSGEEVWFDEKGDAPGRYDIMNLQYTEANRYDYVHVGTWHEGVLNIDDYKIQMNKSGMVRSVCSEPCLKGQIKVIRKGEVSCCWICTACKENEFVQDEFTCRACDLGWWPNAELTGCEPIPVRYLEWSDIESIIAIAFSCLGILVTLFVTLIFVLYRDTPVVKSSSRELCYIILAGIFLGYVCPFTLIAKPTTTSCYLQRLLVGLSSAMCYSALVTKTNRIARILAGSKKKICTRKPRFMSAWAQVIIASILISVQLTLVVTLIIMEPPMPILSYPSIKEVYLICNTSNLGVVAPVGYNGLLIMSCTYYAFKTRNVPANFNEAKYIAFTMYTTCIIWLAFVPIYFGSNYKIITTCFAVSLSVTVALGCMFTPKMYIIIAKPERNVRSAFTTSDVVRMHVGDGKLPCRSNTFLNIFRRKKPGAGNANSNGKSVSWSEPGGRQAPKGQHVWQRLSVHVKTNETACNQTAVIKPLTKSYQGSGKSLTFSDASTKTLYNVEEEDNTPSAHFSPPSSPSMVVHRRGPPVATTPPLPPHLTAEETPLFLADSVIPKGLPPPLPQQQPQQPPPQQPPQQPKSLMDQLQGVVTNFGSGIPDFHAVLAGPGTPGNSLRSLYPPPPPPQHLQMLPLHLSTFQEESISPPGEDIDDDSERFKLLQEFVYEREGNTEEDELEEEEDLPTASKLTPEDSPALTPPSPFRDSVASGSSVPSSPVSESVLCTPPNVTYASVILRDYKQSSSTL

As for `Cc1ccc(C(=O)N(C)c2nc(-c3cc(NC(C)C)ncn3)cs2)cc1`, the result in data set [1], in [2], in data set [3], in data set [4], in data set [6] and in [8] was Active. In addition, the outcome in data set [9] was Active. In addition, the Activity in data set [5] turned out to be 27.5 nM; in data set [10], 22.2 nM; in data set [13] it was 36.3 nM. In addition, the IC50 in data set [7] was 26.5 nM; in [12] it was above 10 µM. Also, the affinity in [7], expressed as Ki, was 13.6 nM. Further, in data set [11], the logD worked out at 1.74. Further, the outcome in data set [14] and in data set [15] was inactive.

In data set [7], `CC(C)Nc1cc(-c2csc(N(C)C(=O)c3ccc(Cl)cc3)n2)ncn1` showed a concentration for half-maximal inhibition (IC50) of 47 nM and a Ki of 22.2 nM. Besides, the IC50 in data set [12] is above 10 µM.

For the compound `CC(C)Nc1cc(-c2csc(N(C)C(=O)c3ccc(C#N)cc3)n2)ncn1`, in [7], the IC50 was found to be 64.7 nM and the Ki came out at 27.3 nM. The compound further showed an IC50 in data set [12] above 10 µM.
